pIC50: −log10 of the molar value. Where two headings read alike, the source gives them in different places.

For assay [1], the system named is T1, acetylcholinesterase (AChE), S-strain DBM larvae.
T1 construct: gene ace1; native, 1,500 g supernatant of whole 4th instar larva homogenate, not purified
As to the kind of experiment: Ellman colorimetric assay, […] nm, linear regression. It is filed as biochemical, Plutella xylostella. The note with it: acetylthiocholine iodide 0.5 mM, DTNB 0.3 mM, 0.1 M phosphate pH 7.0, 6 min, read-out: I50. (In general: In Ellman's method for cholinesterases, released thiocholine reacts with DTNB.)

For assay [2], the system named is T2, acetylcholinesterase (AChE), R-strain DBM larvae.
T2 construct: gene ace1; native, 1,500 g supernatant of whole 4th instar larva homogenate, not purified
As to the kind of experiment: Ellman colorimetric assay, […] nm, linear regression. It is filed as biochemical, Plutella xylostella. The note with it: acetylthiocholine iodide 0.5 mM, DTNB 0.3 mM, 0.1 M phosphate pH 7.0, 6 min; above tested range (10^-3 to 10^-8 M); technical grade 90% a.i.; read-out: I50.

Take `CCOC(=O)CC(SP(=S)(OC)OC)C(=O)OCC` (stereo not drawn) [Malathion]: in assay [1] (above tested range (10^-3 to 10^-8 M), technical grade 84% a.i.), the pIC50 is 1.48.
For `CNC(=O)ON=C(C)SC` [Methomyl], the pIC50 in assay [2] was 2.63; in assay [1] (technical grade 90% a.i.), 3.45.

The values above are taken from PMC2364878, “Insecticidal Effects of Organotin(IV) Compounds on Plutella Xylostella (L.) Larvae. II. Inhibitory Potencies Against Acetylcholinesterase and Evidence for Synergism in Tests With Bacillus Thuringiensis(BER.) and Malathion” (Metal-Based Drugs, 1994).
